The assay concerns H2K mdx myotubes. Nature of the assay: Differentiation of mdx myotubes (fusion index, MYOG gene expression). Type of assay: cell-based, murine. The note with it: mdx myotubes, 1, 5 and 10 μM.

Molecules are shown by their SMILES.

In the case of `CCN(CC)c1ccc2cc(C(=O)Nc3ccc(C(=O)N4CCCCCC4)cc3)c(=O)oc2c1` [OT-9], the MYOG gene expression entry is “slight increase” and the fusion index result is listed as “slight increase”.

(Values after patent US20230348394A1, “COMPOSITIONS AND METHODS FOR TREATING MUSCULAR DYSTROPHIES” (The Regents of the University of California, priority 2020, published 2023).)
